Assay results from US10294202B2, “Pyrrolidinones as herbicides” (FMC Corporation, priority 2013, dated 2019).

Key:
[1] = tested on: sedge, umbrella; test: Test C flooded paddy test; type: in vivo, Cyperus difformis; settings: Flood
Outline: (§1)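 2-leaf stage; flood 3 cm over soil; compound into paddy water; depth held; greenhouse 13–15 d; visual % control vs untreated (0 = none, 100 = complete); "-" = not tested.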

[2] = tested on: crabgrass, large; test: Test A pre-/postemergence herbicide test; type: in vivo, Digitaria sanguinalis; settings: for Crabgrass, Large plant response rating: visual rating on 0 to 100 scale (0 no effect, 100 complete control)
Outline: (§2)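 Approximately 10 days after treatment in the greenhouse, plants were compared with untreated controls and given a 0–100 visual injury rating. Applications: preemergence directed soil spray; postemergence on 2–10 cm plants at the one- to two-leaf stage.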

[3] = tested on: rice; test: Test C flooded paddy test; type: in vivo, Oryza sativa; settings: Flood
Outline: as §1

[4] = tested on: morningglory; test: Test A pre-/postemergence herbicide test; type: in vivo, Ipomoea spp.; settings: for Morningglory plant response rating: visual rating on 0 to 100 scale (0 no effect, 100 complete control)
Outline: as §2

[5] = tested on: ragweed; test: Test A pre-/postemergence herbicide test; type: in vivo, Ambrosia elatior
Outline: as §2

[6] = tested on: wheat (winter wheat); test: Test C pre-/postemergence herbicide test; type: in vivo, Triticum aestivum; settings: Preemergence; for Plant response rating (scale of 0 to 100), Wheat: 250 g ai/ha
Text: (§3) Seeds of plant species selected from blackgrass (Alopecurus myosuroides), ryegrass, Italian (Italian ryegrass, Lolium multiflorum), wheat (winter wheat, Triticum aestivum), galium (catchweed bedstraw, Galium aparine), corn (Zea mays), crabgrass, large (large crabgrass, Digitaria sanguinalis), foxtail, giant (giant foxtail, Setaria faberii), johnsongrass (Sorghum halepense), lambsquarters (Chenopodium album), morningglory (Ipomoea coccinea), nutsedge, yellow (yellow nutsedge, Cyperus esculentus), pigweed (Amaranthus retroflexus), ragweed (common ragweed, Ambrosia elatior), soybean (Glycine max), barnyardgrass (Echinochloa crus-galli), oilseed rape (Brassica napus), waterhemp (common waterhemp, Amaranthus rudis), kochia (Kochia scoparia), oat, wild (wild oat, Avena fatua), surinam grass (Brachiaria decumbens), foxtail, green (green foxtail, Setaria viridis), goosegrass (Eleusine indica), bromegrass, downy (downy bromegrass, Bromus tectorum), nightshade (eastern black nightshade, Solanum ptycanthum), cocklebur (common cocklebur, Xanthium strumarium), cupgrass, woolly (woolly cupgrass, Eriochloa villosa), bermudagrass (Cynodon dactylon), sunflower, (common oilseed sunflower, Helianthus annuus), Russian thistle (Salsola kali) and velvetleaf (Abutilon theophrasti) were planted into a blend of loam soil and sand and treated preemergence with test chemicals formulated in a non-phytotoxic solvent mixture which included a surfactant. At the same time, plants selected from these crop and weed species and also barley (winter barley, Hordeum vulgare), […]), chickweed (common chickweed, Stellaria media), deadnettle (henbit deadnettle, Lamium amplexicaule), and canarygrass (littleseed canarygrass, Phalaris minor) were planted in pots containing Redi-Earth® planting medium (Scotts Company, 14111 Scottslawn Road, Marysville, Ohio 43041) comprising spaghnum peat moss, vermiculite, wetting agent and starter nutrients and treated with postemergence applications of test chemicals formulated in the same manner. Plants ranged in height from 2 to 18 cm (1- to 4-leaf stage) for postemergence treatments. Treated plants and controls were maintained in a greenhouse for 13 to 15 days, after which time all species were compared to controls and visually evaluated. Plant response ratings, summarized in Table C, are based on a scale of 0 to 100 where 0 is no effect and 100 is complete control. A dash (-) response means no test result.

[7] = tested on: kochia; test: Test A pre-/postemergence herbicide test; type: in vivo, Kochia scoparia
Outline: as §2

[8] = tested on: galium; test: Test A postemergence herbicide test; type: in vivo, Galium aparine
Outline: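 Blackgrass and galium grown in pots of loam soil–sand blend, treated postemergence at 2–10 cm height, one- to two-leaf stage. Plants kept in greenhouse ~10 days, then visually rated for injury against untreated controls on a 0–100 scale (0 no effect, 100 complete control).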

[9] = tested on: ryegrass, Italian; test: Test C pre-/postemergence herbicide test; type: in vivo, Lolium multiflorum; settings: Preemergence; for Plant response rating (scale of 0 to 100), Ryegrass, Italian: 250 g ai/ha
Text: as §3

[10] = 31 g ai/ha, scale of 0 to 100 where 0 is no effect and 100 is complete control, 13 to 15 days
[11] = 62 g ai/ha, scale of 0 to 100 where 0 is no effect and 100 is complete control, 13 to 15 days
[12] = 125 g ai/ha, scale of 0 to 100 where 0 is no effect and 100 is complete control, 13 to 15 days
[13] = Postemergence, 125 g ai/ha, 0 to 100 scale, 0 no effect, 100 complete control
[14] = Postemergence, 500 g ai/ha, 0 to 100 scale (0 no effect, 100 complete control)
[15] = preemergence, 500 g ai/ha, 0 to 100 scale
[16] = Postemergence, 125 g ai/ha, visual rating on 0 to 100 scale (0 no effect, 100 complete control), approx. 10 days
[17] = Postemergence, 1000 g ai/ha, 0 to 100 scale (0 no effect, 100 complete control)
[18] = preemergence, 1000 g ai/ha, 0 to 100 scale
[19] = 31 g ai/ha, scale 0 to 100, 0 is no effect and 100 is complete control
[20] = 62 g ai/ha, scale 0 to 100 (0 no effect, 100 complete control)
[21] = 125 g ai/ha, scale 0 to 100 (0 no effect, 100 complete control)
[22] = Postemergence, 125 g ai/ha, 0 to 100 scale, 0 is no effect, 100 is complete control
[23] = Preemergence, 125 g ai/ha, 0 to 100 scale where 0 is no effect and 100 is complete control
[24] = preemergence, 500 g ai/ha, 0 to 100 scale, 0 is no effect and 100 is complete control
[25] = 125 g ai/ha, visual rating, 0 to 100 scale, 0 no effect, 100 complete control, approximately 10 days, preemergence
[26] = Preemergence, 500 g ai/ha, visual rating on 0 to 100 scale (0 no effect, 100 complete control)

| Compound | Plant response rating, Crabgrass, Large [2, 14] | Plant response rating, Morningglory [4, 14] | Wheat plant response rating [6, 19] | Wheat plant response rating [6, 20] | Plant response rating (scale of 0 to 100), Wheat [6] | Ryegrass, Italian plant response rating [9, 19] | Ryegrass, Italian plant response rating [9, 20] | Plant response rating, Ryegrass, Italian [9, 21] | Plant response rating (scale of 0 to 100), Ryegrass, Italian [9] | Plant response rating, Crabgrass, Large [2, 22] | Plant response rating, Crabgrass, Large [2, 23] | Plant response rating, Crabgrass, Large [2, 24] | Plant response rating, Wheat [6, 21] | Plant response rating, Morningglory [4, 22] | Plant response rating, Morningglory [4, 23] | Plant response rating, Morningglory [4, 24] | other results |
| --- | --- | --- | --- | --- | --- | --- | --- | --- | --- | --- | --- | --- | --- | --- | --- | --- | --- |
| O=C1NCC(c2ccc(F)c(F)c2)C1C(=O)Nc1cccc(F)c1 (racemic) [Compound 12] | 90 | 0 |  |  |  |  |  |  |  |  |  |  |  |  |  |  | Plant response rating, Sedge, Umbrella [1, 10]: 0; Plant response rating, Sedge, Umbrella [1, 11]: 0; Plant response rating, Sedge, Umbrella [1, 12]: 0; Plant response rating, Sedge, Umbrella ([1]; 250 g ai/ha, scale 0 to 100): 0; Plant response rating, Crabgrass, Large [2, 13]: 80; Crabgrass, Large plant response rating ([2]; Preemergence, 125 g ai/ha): 90; Plant response rating, Crabgrass, Large [2, 15]: 90; Plant response rating, Rice [3, 10]: 0; Plant response rating, Rice [3, 11]: 0; Plant response rating, Rice [3, 12]: 0; Plant response rating, Rice ([3]; 250 g ai/ha, scale 0 to 100): 0; Plant response rating, Morningglory [4, 13]: 0; Morningglory plant response rating ([4]; Preemergence, 125 g ai/ha): 0; Plant response rating, Morningglory [4, 15]: 0 |
| O=C(Nc1ccccc1F)C1C(=S)NCC1c1cccc(C(F)(F)F)c1 (stereo not drawn) [Compound 274] |  |  | 0 | 0 | 40 | 0 | 0 | 5 | 30 |  |  |  |  |  |  |  | Plant response rating, Ragweed [5, 16]: 0; Plant response rating, Ragweed [5, 17]: 30; Plant response rating, Ragweed [5, 18]: 20; Plant response rating, Kochia [7, 17]: 40; Plant response rating, Kochia [7, 18]: 40; Plant response rating, Galium ([8]; 1000 g ai/ha, 0 to 100 scale (0 no effect, 100 complete control)): 0 |
| O=C1NCC(c2ccc(C(F)(F)F)c(F)c2)C1C(=O)Nc1ccccc1F (racemic) [Compound 246] | 60 | 0 | 0 | 0 | 30 | 0 | 0 | 10 | 10 | 50 | 90 | 90 | 10 | 0 | 0 | 0 |  |
| O=C1NCC(c2cccc(C(F)(F)F)c2)C1C(=O)Nc1cccc(F)c1F (stereo not drawn) [Compound 241] | 80 | 30 | 0 | 45 | 80 | 20 | 20 | 30 | 55 | 70 | 90 | 90 | 90 | 20 | 0 | 0 |  |
| O=C1NCC(c2ccc(C(F)(F)F)nc2)C1C(=O)Nc1ccccc1F (racemic) [Compound 262] | 80 | 0 | 0 | 0 | 0 | 0 | 0 | 0 | 0 | 70 | 90 | 90 |  | 0 | 0 | 0 |  |
| O=C1NCC(c2ccc(C(F)(F)F)cc2)C1C(=O)Nc1ccccc1Cl (stereo not drawn) [Compound 233] |  |  | 0 | 0 | 0 | 0 | 0 | 30 | 40 |  |  |  | 0 |  |  |  | Plant response rating, Ragweed [5, 25]: 40; Plant response rating, Ragweed [5, 22]: 30; Ragweed plant response rating (0 to 100 scale, 0 is no effect, 100 is complete control) ([5]; Postemergence, 500 g ai/ha): 50; Plant response rating, Ragweed [5, 24]: 50; Plant response rating, Kochia [7, 25]: 50; Plant response rating, Kochia [7, 22]: 60; Kochia plant response rating (0 to 100 scale, 0 is no effect, 100 is complete control) ([7]; Postemergence, 500 g ai/ha): 80; Plant response rating, Kochia [7, 24]: 80; Plant response rating, Galium ([8]; 125 g ai/ha, 0 to 100 scale, 0 is no effect, 100 is complete control): 20; Galium plant response rating (0 to 100 scale, 0 is no effect, 100 is complete control) ([8]; 500 g ai/ha): 50 |
| O=C1NCC(c2ccc(F)c(C(F)(F)F)c2)C1C(=O)Nc1ccccc1C(F)(F)F (racemic) [Compound 78] | 80 | 0 | 10 |  | 90 | 0 |  | 40 | 45 |  |  |  | 60 |  |  |  | Plant response rating, Crabgrass, Large [2, 13]: 70; Crabgrass, Large plant response rating ([2]; Preemergence, 125 g ai/ha): 90; Plant response rating, Crabgrass, Large [2, 15]: 90; Plant response rating, Wheat ([6]; 62 g ai/ha, scale 0 to 100): 30; Plant response rating, Morningglory [4, 13]: 0; Morningglory plant response rating ([4]; Preemergence, 125 g ai/ha): 0; Plant response rating, Morningglory [4, 15]: 0; Plant response rating, Ryegrass, Italian ([9]; 62 g ai/ha, scale 0 to 100): 40 |
| O=C1NCC(c2cccc(Br)c2)C1C(=O)Nc1ccccc1F (stereo not drawn) [Compound 307] |  |  |  | 0 | 15 |  | 0 |  | 10 |  |  |  |  |  |  |  | Plant response rating, Ragweed [5, 16]: 0; Plant response rating, Ragweed [5, 14]: 0; Plant response rating, Ragweed [5, 23]: 0; Ragweed plant response rating [5, 26]: 0; Plant response rating, Wheat ([6]; 125 g ai/ha, scale 0 to 100): 5; Plant response rating, Kochia [7, 16]: 0; Plant response rating, Kochia [7, 14]: 0; Plant response rating, Kochia [7, 23]: 0; Kochia plant response rating [7, 26]: 0; Plant response rating, Galium ([8]; 125 g ai/ha, visual rating on 0 to 100 scale (0 no effect, 100 complete control), approx. 10 days): 0; Plant response rating, Galium ([8]; 500 g ai/ha, 0 to 100 scale (0 no effect, 100 complete control)): 0; Plant response rating, Ryegrass, Italian ([9]; 125 g ai/ha, scale 0 to 100): 5 |
